Source: US20230257372A1 (CHONG KUN DANG PHARMACEUTICAL CORP., priority 2020, published 2023)
Where two headings read alike, the source gives them in different places.

Columns and labels:
[1] = biological target: T1, human recombinant HDAC6 (Homo sapiens, UniProt Q9UBN7); experiment: HDAC6 enzyme activity inhibition (HDAC Fluorimetric Drug Discovery Kit); format: biochemical
T1 construct: purchased Calbiochem Inc. 382180
T1 sequence (Q9UBN7 1-1215): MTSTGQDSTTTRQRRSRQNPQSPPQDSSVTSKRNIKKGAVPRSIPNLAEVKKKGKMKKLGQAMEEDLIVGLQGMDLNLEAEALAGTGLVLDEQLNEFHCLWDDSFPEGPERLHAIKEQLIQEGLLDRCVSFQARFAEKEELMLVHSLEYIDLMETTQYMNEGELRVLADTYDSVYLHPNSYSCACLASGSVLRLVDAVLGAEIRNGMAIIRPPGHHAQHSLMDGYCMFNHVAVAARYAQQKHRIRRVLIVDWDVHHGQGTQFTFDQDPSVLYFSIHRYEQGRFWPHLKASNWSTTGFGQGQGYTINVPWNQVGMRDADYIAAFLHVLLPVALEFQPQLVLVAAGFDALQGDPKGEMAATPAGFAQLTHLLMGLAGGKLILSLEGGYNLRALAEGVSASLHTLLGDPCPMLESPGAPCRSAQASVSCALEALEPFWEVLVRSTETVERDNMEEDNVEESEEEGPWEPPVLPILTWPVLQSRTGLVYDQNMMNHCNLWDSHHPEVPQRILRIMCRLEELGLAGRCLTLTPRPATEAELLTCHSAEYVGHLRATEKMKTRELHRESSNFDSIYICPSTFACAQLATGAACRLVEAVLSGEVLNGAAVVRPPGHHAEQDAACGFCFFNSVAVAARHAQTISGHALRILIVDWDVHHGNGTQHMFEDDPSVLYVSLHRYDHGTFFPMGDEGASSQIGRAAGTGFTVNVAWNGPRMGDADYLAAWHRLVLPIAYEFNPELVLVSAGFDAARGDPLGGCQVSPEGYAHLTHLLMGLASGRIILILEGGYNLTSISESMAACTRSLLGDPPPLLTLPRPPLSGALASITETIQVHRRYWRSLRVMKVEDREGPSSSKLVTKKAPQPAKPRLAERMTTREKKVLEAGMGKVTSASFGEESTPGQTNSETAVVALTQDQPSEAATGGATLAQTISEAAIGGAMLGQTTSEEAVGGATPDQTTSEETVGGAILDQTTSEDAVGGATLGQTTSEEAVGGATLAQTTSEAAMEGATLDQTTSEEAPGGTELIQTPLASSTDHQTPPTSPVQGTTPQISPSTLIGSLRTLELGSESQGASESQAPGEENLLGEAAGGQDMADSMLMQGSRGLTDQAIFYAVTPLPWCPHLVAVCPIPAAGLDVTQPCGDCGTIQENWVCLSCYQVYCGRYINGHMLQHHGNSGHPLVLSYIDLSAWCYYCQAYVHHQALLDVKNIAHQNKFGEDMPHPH
How it was run: (§1)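 Compounds in 5-fold dilution series were incubated with […] enzyme and 10 μM substrate at 30° C for 60 minutes. Fluor de Lys Developer II was then added for 30 minutes to stop the reaction and develop the fluorescent signal.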

[2] = biological target: T2, human recombinant HDAC1 (Homo sapiens, UniProt Q13547); experiment: HDAC1 enzyme activity inhibition (HDAC Fluorimetric Drug Discovery Kit); format: biochemical; conditions: read-out: HDAC1
T2 construct: purchased Enzo Life Science, Inc. BML-SE456
T2 sequence (Q13547 whole entry): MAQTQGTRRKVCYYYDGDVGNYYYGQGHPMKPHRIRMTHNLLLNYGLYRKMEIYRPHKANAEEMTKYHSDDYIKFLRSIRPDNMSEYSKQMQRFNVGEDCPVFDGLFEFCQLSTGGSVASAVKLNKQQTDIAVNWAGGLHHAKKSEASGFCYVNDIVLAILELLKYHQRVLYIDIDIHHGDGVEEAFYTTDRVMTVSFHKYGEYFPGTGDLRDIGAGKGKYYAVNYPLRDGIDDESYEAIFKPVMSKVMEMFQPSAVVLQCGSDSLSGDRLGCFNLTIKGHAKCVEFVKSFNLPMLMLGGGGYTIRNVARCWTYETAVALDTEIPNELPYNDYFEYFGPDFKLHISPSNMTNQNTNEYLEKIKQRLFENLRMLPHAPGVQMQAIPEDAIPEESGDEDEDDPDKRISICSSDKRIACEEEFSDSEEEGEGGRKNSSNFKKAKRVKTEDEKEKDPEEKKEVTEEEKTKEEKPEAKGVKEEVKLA
How it was run: as §1

[3] = system: hippocampal neurons from a Sprague-Dawley (SD) rat fetus; experiment: Effect of HDAC6-specific inhibitor on axonal transport of mitochondria in amyloid-beta treated neurons; format: cell-based; conditions: transport velocity of mitochondria in neuronal axon after normalization; vehicle = 100%, amyloid beta treatment group = 0%; compound treatment for three hours
Experimental: On the 17th to 18th days (E17-18) of insemination, the hippocampal neurons from a Sprague-Dawley (SD) rat fetus were cultured in a culture container for imaging, which had been coated with extracellular matrix, and were treated with amyloid-beta protein fragments at a concentration of […]. In 24 hours later, the neurons were treated with the compound on the 8th day of in vitro culture. In three hours later, the resulting neurons were treated with MitoTracker Red CMXRos (Life Technologies, NY, USA) for last five minutes to stain mitochondria. An image on the axonal transport of stained neuron mitochondria was taken with a confocal microscope (Leica SP8; Leica microsystems, UK) at an interval of one second for one minute to measure a transport velocity of each mitochondria per second with an IMARIS analysis program (BITPLANE, Zurich, Switzerland).
In result, after setting a section, in which the group treated with amyloid-beta had shown a significant decrease in the transport velocity of mitochondria compared to a vehicle, it was confirmed for 1,3,4-oxadiazole triazol derivative compounds of the present invention, stereoisomers thereof or pharmaceutically acceptable salts thereof that the vehicles is represented as 100%, the amyloid beta treatment group is represented as 0%, a velocity distribution of the compound after normalization is represented as *, 0%˜50%; **, 50%˜100%; ***, >100%.

[4] = human recombinant HDAC6, IC50 calculated with GraphPad Prism
[5] = human recombinant HDAC1, IC50 calculated with GraphPad Prism

SMILES | HDAC6 selectivity (fold) ([1]; HDAC1 IC50 / HDAC6 IC50) | IC50 [1, 4] [nM] | IC50 [2, 5] [nM] | HDAC6 selectivity (fold) ([1]; HDAC6 over HDAC1) | IC50 ([1]; human recombinant HDAC6, same protocol as HDAC1) [nM] | IC50 ([2]; human recombinant HDAC1, Fluor de Lys substrate, 30° C. 60 minutes) [nM] | Velocity distribution (%) [3]
FC(F)c1nnc(-c2ccc(Cn3cc(-c4ccc5c(CN6CCOCC6)c[nH]c5c4)nn3)cc2)o1 [Compound 4134, 4-((6-(1-(4-(5-(difluoromethyl)-1,3,4-oxadiazol-2-yl)benzyl)-1H-1,2,3-triazol-4-yl)-1H-indol-3-yl)methyl)morpholine] | 3030 | 16.5 | > 50000 | – | – | – | ** (**, 50%˜100%)
CN1CCC(Nc2cccc(-c3cn(Cc4ccc(-c5nnc(C(F)F)o5)cc4F)nn3)c2F)CC1 [Compound 4431, N-(3-(1-(4-(5-(difluoromethyl)-1,3,4-oxadiazol-2-yl)-2-fluorobenzyl)-1H-1,2,3-triazol-4-yl)-2-fluorophenyl)-1-methylpiperidin-4-amine] | 2631 | 19 | > 50000 | – | – | – | *** (***, >100%)
CN1CCN(c2cccc(-c3cn(Cc4ccc(-c5nnc(C(F)F)o5)cc4)nn3)c2)CC1 [Compound 4336, 2-(difluoromethyl)-5-(4-((4-(3-(4-methylpiperazin-1-yl)phenyl)-1H-1,2,3-triazol-1-yl)methyl)phenyl)-1,3,4-oxadiazole] | 1543 | 32.4 | > 50000 | – | – | – | *** (***, >100%)
Fc1cc(-c2nnc(C(F)F)o2)cnc1Cn1cc(-c2cccc3[nH]ncc23)nn1 [Compound 19058, 2-(6-((4-(1H-indazol-4-yl)-1H-1,2,3-triazol-1-yl)methyl)-5-fluoropyridin-3-yl)-5-(difluoromethyl)-1,3,4-oxadiazole] | – | – | – | 2304 | 21.7 | > 50000 | *** (***, >100%)
Fc1cc(-c2nnc(C(F)F)o2)ccc1Cn1cc(-c2ccc3[nH]ncc3c2)nn1 [Compound 4345, 2-(4-((4-(1H-indazol-5-yl)-1H-1,2,3-triazol-1-yl)methyl)-3-fluorophenyl)-5-(difluoromethyl)-1,3,4-oxadiazole] | – | – | > 50000 | – | – | – | * (*, 0%˜50%)
COC(=O)Nc1cccc(-c2cn(Cc3ccc(-c4nnc(C(F)F)o4)cc3F)nn2)c1 [Compound 3776, Methyl (3-(1-(4-(5-(difluoromethyl)-1,3,4-oxadiazol-2-yl)-2-fluorobenzyl)-1H-1,2,3-triazol-4-yl)phenyl)carbamate] | 1984 | 25.2 | > 50000 | – | – | – | *** (***, >100%)
Fc1cc(-c2nnc(C(F)F)o2)ccc1Cn1cc(-c2ccc3c(c2)CCN(C2CCC2)C3)nn1 [Compound 4361, 2-(4-((4-(2-cyclobutyl-1,2,3,4-tetrahydroisoquinolin-6-yl)-1H-1,2,3-triazol-1-yl)methyl)-3-fluorophenyl)-5-(difluoromethyl)-1,3,4-oxadiazole] | 668 | 74.8 | > 50000 | – | – | – | ** (**, 50%˜100%)
CC1CCN(Cc2c[nH]c3cc(-c4cn(Cc5ccc(-c6nnc(C(F)F)o6)cc5F)nn4)ccc23)CC1 [Compound 4110, 2-(difluoromethyl)-5-(3-fluoro-4-((4-(3-((4-methylpiperidin-1-yl)methyl)-1H-indol-6-yl)-1H-1,2,3-triazol-1-yl)methyl)phenyl)-1,3,4-oxadiazole] | 3030 | 16.5 | > 50000 | – | – | – | ** (**, 50%˜100%)

The next lines start with results.

HDAC6 selectivity (fold) ([1]; HDAC1 IC50 / HDAC6 IC50) | IC50 [1, 4] [nM] | IC50 [2, 5] [nM] | HDAC6 selectivity (fold) ([1]; HDAC6 over HDAC1) | IC50 ([1]; human recombinant HDAC6, same protocol as HDAC1) [nM] | IC50 ([2]; human recombinant HDAC1, Fluor de Lys substrate, 30° C. 60 minutes) [nM] | SMILES | Velocity distribution (%) [3]
2183 | 22.9 | > 50000 | – | – | – | FC(F)c1nnc(-c2ccc(Cn3cc(-c4cccc(C5CCN(C6COC6)CC5)c4)nn3)nc2)o1 [Compound 4013, 2-(difluoromethyl)-5-(6-((4-(3-(1-(oxetan-3-yl)piperidin-4-yl)phenyl)-1H-1,2,3-triazol-1-yl)methyl)pyridin-3-yl)-1,3,4-oxadiazole] | ** (**, 50%˜100%)
7142 | 7 | > 50000 | – | – | – | FC(F)c1nnc(-c2ccc(Cn3cc(-c4ccc5cc[nH]c5c4)nn3)nc2)o1 [Compound 3838, 2-(6-((4-(1H-indol-6-yl)-1H-1,2,3-triazol-1-yl)methyl)pyridin-3-yl)-5-(difluoromethyl)-1,3,4-oxadiazole] | * (*, 0%˜50%)
3048 | 16.4 | > 50000 | – | – | – | FC(F)c1nnc(-c2ccc(Cn3cc(-c4cccc(-n5ccnc5)c4)nn3)nc2)o1 [Compound 4075, 2-(6-((4-(3-(1H-imidazol-1-yl)phenyl)-1H-1,2,3-triazol-1-yl)methyl)pyridin-3-yl)-5-(difluoromethyl)-1,3,4-oxadiazole] | *** (***, >100%)
5681 | 8.8 | > 50000 | – | – | – | FC(F)c1nnc(-c2ccc(Cn3cc(-c4ccnc5[nH]ccc45)nn3)nc2)o1 [Compound 3840, 2-(6-((4-(1H-pyrrolo[2,3-b]pyridin-4-yl)-1H-1,2,3-triazol-1-yl)methyl)pyridin-3-yl)-5-(difluoromethyl)-1,3,4-oxadiazole] | ** (**, 50%˜100%)
1506 | 33.2 | > 50000 | – | – | – | Cc1cccc(-c2cn(Cc3ccc(-c4nnc(C(F)F)o4)cn3)nn2)c1 [Compound 3856, 2-(difluoromethyl)-5-(6-((4-(m-tolyl)-1H-1,2,3-triazol-1-yl)methyl)pyridin-3-yl)-1,3,4-oxadiazole] | *** (***, >100%)
2487 | 20.1 | > 50000 | – | – | – | FC(F)c1nnc(-c2ccc(Cn3cc(-c4cccc(NC5CCOCC5)c4)nn3)nc2)o1 [Compound 3827, N-(3-(1-((5-(5-(difluoromethyl)-1,3,4-oxadiazol-2-yl)pyridin-2-yl)methyl)-1H-1,2,3-triazol-4-yl)phenyl)tetrahydro-2H-pyran-4-amine] | *** (***, >100%)
1128 | 44.3 | > 50000 | – | – | – | CCN1CCc2cc(-c3cn(Cc4ccc(-c5nnc(C(F)F)o5)cn4)nn3)ccc2C1 [Compound 4052, 2-(difluoromethyl)-5-(6-((4-(2-ethyl-1,2,3,4-tetrahydroisoquinolin-6-yl)-1H-1,2,3-triazol-1-yl)methyl)pyridin-3-yl)-1,3,4-oxadiazole] | ** (**, 50%˜100%)
– | – | > 50000 | – | – | – | FC(F)c1nnc(-c2ccc(Cn3nnc(-c4ccccc4)n3)nc2)o1 [Compound 4234, 2-(difluoromethyl)-5-(6-((5-phenyl-2H-tetrazol-2-yl)methyl)pyridin-3-yl)-1,3,4-oxadiazole] | *** (***, >100%)
